According to ChEMBL document CHEMBL5604062, “ASAP - ZIKV NS2B-NS3 protease fluorescence dose response” (2024):
Values joined by “and” are separate entries in the source; they are usually repeats but may differ in a detail not shown here. Equal entries are not always repeated.

Molecular target: Nonstructural protein 3 (Zika virus, UniProt A0A024AXB9)
Assay: Functional biochemical assay to identify treatments for viral infectious disease that targets Zika NS2B-NS3 protease. Utilizing a direct enzyme activity measurement method, reading the fluorescence intensity is used to characterize the relative potency of inhibitors as IC50.
Parameters: species or system PRVABC59

Chain of Nonstructural protein 3 (A0A024AXB9 whole entry): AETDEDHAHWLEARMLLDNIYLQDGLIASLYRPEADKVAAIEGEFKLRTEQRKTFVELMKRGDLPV

Row | Structure (SMILES) | IC50
1 | Cc1cccc(-c2ccc([C@@H](NC(=O)OCc3ccccc3)C(=O)Nc3cccc(CN)c3)cc2)c1 | 7.4 µM
2 | O=C(Nc1cc(Cl)cc(C(=O)Nc2ccc3c(c2)C(=O)NC3)c1)OCc1ccccc1 | > 99.5 µM
3 | COc1cc(Cc2ccnc(N3CCNCC3)c2)nc(N2CCNCC2)n1 | > 99.5 µM
4 | CN1CCc2ncc(NC(=O)[C@@H](NC(=O)OCc3ccccc3)c3ccc(OCc4ccccc4)cc3)cc2C1 | > 99.5 µM
5 | O=C(Nc1cc(Cl)cc(-c2ccn3c(C(=O)O)cnc3c2)c1)OCc1ccccc1 | > 99.5 µM
6 | NCc1cccc(NC(=O)[C@H]2CCOC3(CCC3)C2)c1 | > 99.5 µM
7 | O=c1[nH]c2cccc(N3CCN(Cc4c[nH]c5ccccc45)CC3)c2o1 | > 99.5 µM
8 | NCc1cccc(NS(=O)(=O)c2cc(Cl)cc(NC(=O)OCc3ccccc3)c2)c1 | > 99.5 µM
9 | c1cc(-c2nnc(NCc3nnn[nH]3)s2)no1 | > 99.5 µM
10 | O=C(Nc1ccc2c(c1)CNC2)c1nc(Cl)nc2[nH]ccc12 | > 25 µM
11 | O=C(Nc1cc(Cl)cc(C(=O)N2CCC[C@H](c3nnn[nH]3)C2)c1)OCc1ccccc1 | > 99.5 µM
12 | NCc1cc(Cl)cc(-c2ccc3[nH]c(C(=O)O)cc3c2)c1 | > 99.5 µM
13 | COc1cc(NC(=O)OCc2ccccc2)cc(C(=O)Nc2cccc(CN)c2)c1 | 78.8 µM
14 | Cc1c(C(=O)Nc2cc(-c3cccnc3)ccn2)cc(C#N)n1C | > 25 µM
15 | Cc1c(C(=O)Nc2ccc3c(c2)CCS3(=O)=O)cc(C2CC2)n1C | > 25 µM
16 | OC[C@H](Cc1cccnc1)NCc1c[nH]c2ccccc12 | > 99.5 µM
17 | CC(C)CNC(=O)[C@H](Nc1ccc2c(c1)CNC2)c1cc(Cl)cc2[nH]ncc12 | 0.075 µM and 0.054 µM
18 | O=C(N[C@@H](C(=O)Nc1ccccn1)c1ccc(OCc2ccccc2)cc1)OCc1ccccc1 | > 99.5 µM
19 | CCn1ccnc(N2CC[C@@H](C(=O)NC)C2)c1=O | > 99.5 µM
20 | NCc1cccc(NC(=O)[C@H](NC(=O)c2ccns2)c2ccc(OCc3ccccc3)cc2)c1 | 95.2 µM
21 | CCn1ccnc(N2CC[C@H](c3cccc(C#N)c3)C2)c1=O | > 99.5 µM
22 | Cc1c(C(=O)Nc2cc(-c3ccccn3)c(Br)cn2)cc(C2CC2)n1C | > 99.5 µM
23 | O=C(Nc1ccc2c(c1)CNC2)c1cc(F)cc2nn(-c3ccccn3)nc12 | 0.111 µM and 0.13 µM
24 | O=C(Nc1ccc2c(c1)CNC2)c1ccc2c(C3=CCNCC3)csc2c1 | 0.5 µM and 0.54 µM
25 | O=C(N[C@@H](C(=O)NC1CCNCC1)c1ccc(OCc2ccccc2)cc1)OCc1ccccc1 | > 99.5 µM
26 | O=C(Nc1ccc2c(c1)CNC2)c1cc(F)cc2[nH]cnc12 | 0.176 µM

Row | Structure (SMILES) | IC50
27 | NCc1cccc(NC(=O)c2cc(OCc3ccccc3)ccc2CNC(=O)OCc2ccccc2)c1 | 21.1 µM
28 | CCc1cc(F)ccc1CC(=O)N1CCCc2cc(CCN)ccc21 | > 99.5 µM
29 | O=c1ccc(N2CCN(Cc3c[nH]c4ccccc34)CC2)n[nH]1 | > 99.5 µM
30 | NCc1cccc(NC(=O)[C@@H]2C[C@@H](O)CN2C(=O)C23CC4CC(CC(C4)C2)C3)c1 | > 99.5 µM
31 | NCc1ccc2c(c1)CCC[C@H]2NCc1cc(Cl)cc2c1OCC2 | 61.4 µM
32 | Cc1[nH]c2ccccc2c1CN1CCC(c2nc3ccccc3s2)CC1 | 2.89 µM
33 | Cc1cc(C(=O)Nc2ccc3c(c2)CNC3)cc2nn[nH]c12 | 3.34 µM
34 | NCc1cccc(NC(=O)c2cc(Cl)cc(C(N)=O)c2)c1 | 1.35 µM
35 | NCc1cccc(NC(=O)[C@@H](NC(=O)OCc2ccccc2)C2CCN(S(=O)(=O)Cc3cscn3)CC2)c1 | > 99.5 µM
36 | O=C(N[C@@H](C(=O)N[C@H]1CCCNC1)c1ccc(OCc2ccccc2)cc1)OCc1ccccc1 | > 99.5 µM
37 | NCc1cc(NS(=O)(=O)c2ccc(Oc3ccccc3Cl)cc2)ccc1Cl | > 99.5 µM
38 | C#Cc1cc(NC(=O)OCc2ccccc2)cc(C(=O)Nc2cccc(CN)c2)c1 | 36.4 µM
39 | O=C(Nc1ccc2c(c1)CNC2)c1cc(F)cc2c1CCC2 | 0.099 µM and 0.09 µM
40 | Cc1c(C(=O)Nc2cccc(-c3nnn[nH]3)c2)sc2ccccc12 | > 99.5 µM
41 | CCn1c(=O)c(N2C[C@H]3C[C@@H](O)CC[C@H]3C2)nc2ccccc21 | > 99.5 µM
42 | O=C(Nc1cc(Cl)cc(-c2ccc(C3(C(=O)O)CCNCC3)cc2)c1)OCc1ccccc1 | > 99.5 µM
43 | N[C@H]1CCc2cc(NC(=O)c3cc(Cl)cc(NC(=O)OCc4ccccc4)c3)ccc21 | 5.75 µM
44 | O=C(Nc1cc(Cl)cc(C(=O)Nc2ccc3c(c2)CNC3)c1)OCc1ccccc1 | < 2.49 µM and 0.175 µM and 0.19 µM
45 | NCc1cccc(NC(=O)c2cc(C3CCCCC3)nc3ccc(F)cc23)c1 | > 99.5 µM
46 | COc1ncccc1-c1ccc([C@@H](NC(=O)OCc2ccccc2)C(=O)Nc2cccc(CN)c2)cc1 | 17.9 µM
47 | O=C(Nc1ccc2c(c1)CNC2)c1c(Cl)ccc2c1OCO2 | > 25 µM
48 | CC(C)(C)Oc1ccc(S(=O)(=O)Nc2ccc(Cl)cc2C(=O)O)cc1 | > 99.5 µM
49 | NCc1cccc(NC(=O)[C@@H](NC(=O)OCc2ccccc2)c2ccc(Br)c(Cl)c2)c1 | 9.66 µM and 8.77 µM
50 | CC(C)c1nnc(-c2nc3c(C(=O)Nc4ccc5c(c4)CNC5)cc(F)cc3[nH]2)s1 | 0.161 µM and 0.559 µM
51 | C[C@H](NC(=O)c1cccc2c1CC(=O)N2)c1cccc(S(C)(=O)=O)c1 | > 25 µM
52 | CCc1cc(C(=O)Nc2ccc3c(c2)CNC3)sc1-c1ccc(Cl)cc1 | > 99.5 µM

Row | Structure (SMILES) | IC50
53 | CCn1c(=O)c(N2C[C@@H](CO)[C@H](c3cncn3C)C2)nc2ccccc21 | > 99.5 µM
54 | O=C1NC[C@H](c2ccc(OCc3ccccc3)c(Br)c2)N1C(=O)OCc1ccccc1 | > 99.5 µM
55 | CC(C)(C)OC(=O)N[C@H](C(=O)Nc1ccc(CN)cc1)c1ccc(OCc2ccccc2)cc1 | > 99.5 µM
56 | O=C(O)c1cc(Cl)ccc1NCc1ccc(Oc2ccccc2Cl)cc1 | > 99.5 µM
57 | O=C1Cc2c(C(=O)Nc3ccc4c(c3)CNC4)ccnc2N1 | 22.8 µM
58 | O=C1Cc2c(cccc2C(=O)NC2CCC3(CC2)COC3)N1 | > 25 µM
59 | O=C(Nc1cc(Cl)cc(C(=O)NC[C@@H]2CNCCC2(F)F)c1)OCc1ccccc1 | > 99.5 µM
60 | O=C(N[C@@H](C(=O)Nc1cccnc1)c1ccc(OCc2ccccc2)cc1)OCc1ccccc1 | > 99.5 µM
61 | CC(C)N1CCc2nc(NC(=O)c3cc(Cl)cc(NC(=O)OCc4ccccc4)c3)sc2C1 | > 99.5 µM
62 | NCc1cccc(NC(=O)[C@H](NC(=O)OCc2ccccc2)c2cccc(-c3ccnc(N)c3)c2)c1 | 48.1 µM
63 | CC(C)NC(=O)[C@H](Nc1ccc2c(c1)C(=O)OC2)c1cc(Cl)cc2[nH]ncc12 | > 25 µM
64 | C#C[C@H](Nc1ccc2c(c1)CNC2)c1cccc2c1CCNC2=O | > 25 µM
65 | CC(C)(C)Cn1c(=O)[nH]c2cccc(C(=O)Nc3cccc(CN)c3)c21 | 37.2 µM
66 | O=C(Nc1cc(Cl)cc(C(=O)Nc2cc(Br)cc(-c3nnn[nH]3)c2)c1)OCc1ccccc1 | 7.24 µM
67 | C#C[C@H](Nc1cccc(C(=O)O)c1)c1cc(Cl)cc2[nH]ncc12 | > 99.5 µM
68 | CCN1C[C@H]2C[C@@H]1CN2c1nc2ccccc2n(CC)c1=O | > 99.5 µM
69 | O=C(Nc1cc(-c2cccnc2)ccn1)c1nnc(C2CC2)s1 | > 25 µM
70 | NC(=O)[C@H]1CCCN(Cc2c[nH]c3ccccc23)C1 | > 99.5 µM
71 | Cn1ccc(CS(=O)(=O)N[C@@H](C(=O)Nc2cccc(CN)c2)c2ccc(OCc3ccccc3)cc2)n1 | > 99.5 µM
72 | Nc1nc2c(Br)cc(C(=O)Nc3ccc4c(c3)CNC4)cc2s1 | 5.07 µM
73 | Cn1nc(CCN)nc1NC(=O)c1cc(Cl)cc(NC(=O)OCc2ccccc2)c1 | 31.3 µM
74 | COc1cc(Cl)cc([C@H](Nc2ccc3c(c2)CNC3)C(=O)NCC(F)F)c1 | 0.033 µM and 0.021 µM
75 | NCc1cccc(NC(=O)c2cc3c(c(NC(=O)OCc4ccccc4)c2)OCC3)c1 | 78.4 µM
76 | Cc1c(C(=O)Nc2cc3c(cn2)OCC3)cc(C2CC2)n1C | > 25 µM
77 | Cc1cc(C(F)(F)F)cc(C(=O)Nc2ccc3c(c2)CNC3)n1 | > 25 µM
78 | N#Cc1cc(Cl)cc([C@H](C#N)Nc2ccc3c(c2)CNC3)c1 | 0.433 µM

Row | Structure (SMILES) | IC50
79 | O=C(Nc1cc(Cl)cc([C@H]2C[C@@H]2c2cccc(-c3nnn[nH]3)c2)c1)OCc1ccccc1 | 27.6 µM
80 | NCc1cccc(NC(=O)c2cc(Cl)cc(NC(=O)NCc3ccccc3)c2)c1 | 2.1 µM
81 | C=CC[C@H](Nc1cccc(C2(C(=O)O)CCC2)c1)c1cc(Cl)cc(NC(=O)OCc2ccccc2)c1 | 33.8 µM
82 | C[C@](C#N)(Nc1ccc2c(c1)CNC2)c1cccc(Cl)c1 | > 25 µM
83 | O=S(=O)(c1c[nH]c2ccccc12)N1CCC(c2cnc3ccc[nH]c2-3)CC1 | > 99.5 µM
84 | NCc1cccc(NC(=O)c2cc(NC(=O)OCc3ccccc3)cc(C3CC3)c2)c1 | 22.1 µM
85 | Cn1c(Sc2nc3ccccc3o2)nc2sccc2c1=O | > 99.5 µM
86 | CCc1cccc2c(CN3CCC(c4cscn4)CC3)c[nH]c12 | > 99.5 µM
87 | O=C(O)Cc1cc(NS(=O)(=O)c2ccc(Oc3ccccc3Cl)cc2)ccc1Cl | > 99.5 µM
88 | O=C1Cc2c(cccc2C(=O)Nc2ccc3c(c2)C(=O)OC3)N1 | > 25 µM
89 | CCC1(NC(=O)Cn2ccnc(N3CC[C@@H](CO)C3)c2=O)CC1 | > 99.5 µM
90 | O=C(O)c1cc(Cl)ccc1S(=O)(=O)NC1CCN(c2ccc(C(F)(F)F)cn2)CC1 | > 99.5 µM
91 | CS(=O)(=O)NCc1cccc(CNC(=O)[C@@H](NC(=O)OCc2ccccc2)c2ccc(OCc3ccccc3)cc2)c1 | > 99.5 µM
92 | O=C(N[C@@H](C(=O)NC1CNC1)c1ccc(OCc2ccccc2)cc1)OCc1ccccc1 | > 99.5 µM
93 | O[C@@H]1CN(Cc2c[nH]c3ccccc23)C[C@H]1c1c[nH]c2ccccc12 | > 99.5 µM
94 | Cc1cccnc1COc1ccc(S(=O)(=O)Nc2ccc(Cl)cc2C(=O)O)cc1 | > 99.5 µM
95 | O=C(Nc1ccc2nc[nH]c2c1)c1cc(F)cc2[nH]ncc12 | 3.3 µM
96 | Cn1nccc1C1CCN(Cc2c[nH]c3ccccc23)CC1 | > 99.5 µM
97 | CCn1c(=O)c(N2C[C@H]3C[C@H]2C(F)(F)C3)nc2ccccc21 | > 99.5 µM
98 | O=C(Nc1cc(Cl)cc(C(=O)Nc2ccc(C3CCNCC3)cc2)c1)OCc1ccccc1 | 6.02 µM
99 | NCc1cccc(N(C(=O)CNC(=O)OCc2ccccc2)c2ccc(OCc3ccccc3)cc2)c1 | > 99.5 µM
100 | CCCc1sc(C(=O)Nc2ccc3c(c2)CNC3)cc1CC | 20.1 µM
101 | O=C(O)c1cc(Cl)ccc1S(=O)(=O)N[C@H]1CCn2c(nnc2C(F)(F)F)C1 | > 99.5 µM
102 | CNC(=O)C[C@H](Nc1ccccn1)c1cc(Cl)cc(CN)c1 | > 99.5 µM
103 | O=C(Nc1ccc2c(c1)CNC2)c1cc(Cl)cc(N2CCCC2)c1 | 0.114 µM
104 | Cc1c(C(=O)Nc2cc(C(=O)N3C[C@@H]4[C@H](O)[C@@H]4C3)ccn2)cc(C2CC2)n1C | > 25 µM
